Measured values taken from publication PMC9578396, “Intrinsic Antibacterial Activity of Xeruborbactam In Vitro: Assessing Spectrum and Mode of Action” (Antimicrobial Agents and Chemotherapy, 2022).
≈ marks a conversion by molar mass, not a printed value. Where “and” joins values, the source holds several entries; their conditions need not be identical. Equal values may be shown once. Read-outs that look alike come from different tables or passages of the source.

Columns and labels:
Type in all cases: cell-based
Klebsiella pneumoniae = assay: microbe, parasite or virus in culture; conditions: for MIC: Klebsiella pneumoniae
In short: (§1)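 Test organisms were KPC-producing clinical isolates (some enriched for porin mutations), matched isolates that lost KPC plasmids, and engineered porin/efflux mutant strains. Susceptibility was measured by broth microdilution following CLSI methods, using panels prepared in-house.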

Acinetobacter baumannii = assay: Broth microdilution MIC (CLSI), Acinetobacter baumannii
In short: as §1

Streptococcus pneumoniae = assay: MIC, Streptococcus pneumoniae; conditions: Streptococcus pneumoniae; for MIC: read-out: MIC
From the text: Bacterial isolates were subjected to broth microdilution susceptibility testing, performed according to Clinical and Laboratory Standards Institute (CLSI) methods ([46]), using panels prepared in-house. Meropenem was purchased from Sandoz, and all other antibiotics were from Sigma-Aldrich. Xeruborbactam was synthesized at Qpex Biopharma, San Diego, CA. Avibactam was purchased from eNovation Chemicals LLC, Bridgewater, NJ, USA; zidebactam was from MedKoo Biosciences, Inc., Morrisville, NC, and nacubactam was from Advanced ChemBlocks, Hayward, CA. Durlobactam was synthesized at Acme Bioscience, Palo Alto, CA, USA.

[1] = Carbapenem-resistant Acinetobacter baumannii, 505 isolates

`O=C(O)c1c(F)ccc2c1OB(O)[C@@H]1C[C@H]21` [Xeruborbactam] gave an MIC (Klebsiella pneumoniae; clinical isolate KP1598, OmpK35 NF, OmpK36 PFN (GD), read-out: MIC) of 64 µg/mL, an MIC (Klebsiella pneumoniae; strain KPM1026a measured at 30°C (Fig. 6), read-out: MIC) of 32 µg/mL and an MIC (Klebsiella pneumoniae; strain KPM1026a, wild type, read-out: MIC) of 16 µg/mL. The MIC (Klebsiella pneumoniae; strain KPM1026a, read-out: MIC) was 16 µg/mL, the MIC (Klebsiella pneumoniae; strain KPM1027, ramR, read-out: MIC) was 16 µg/mL and the MIC (Klebsiella pneumoniae; strain KPM1171, lacks porins and overexpresses AcrAB) was 64 µg/mL. It also gave an MIC (Klebsiella pneumoniae; strain KPM1171, ramR ompK36_1171, read-out: MIC) of 64 µg/mL, an MIC (Klebsiella pneumoniae; strain KPM2040, ompK36_2040, read-out: MIC) of 16 µg/mL and an MIC (Klebsiella pneumoniae; strain KPM2600, ΔompK35) of 16 µg/mL. For the same compound, the MIC (Klebsiella pneumoniae; strain KPM2613, ΔompK35 ompK36_2040) was 32 µg/mL, the MIC (Klebsiella pneumoniae; strain KPM2696, ΔacrB) was 16 µg/mL and the “percentage of strains with xeruborbactam MIC values ≥32 µg/ml” value (“percentage of strains” below) (Klebsiella pneumoniae; OmpK35 full-length (n=118)) was 31.4%. The “percentage of strains” value (Klebsiella pneumoniae; OmpK35 full-length, OmpK36 GD (n=11)) was 82%, the “percentage of strains” value (Klebsiella pneumoniae; OmpK35 full-length, OmpK36 full length (n=82)) was 6.1% and the “percentage of strains” value (Klebsiella pneumoniae; OmpK35 full-length, OmpK36 non-functional (n=25)) was 92%. The “percentage of strains” value (Klebsiella pneumoniae; OmpK35 non-functional (n=318)) was 49%, the “percentage of strains” value (Klebsiella pneumoniae; OmpK35 non-functional, OmpK36 GD (n=149)) was 74.5% and the “percentage of strains” value (Klebsiella pneumoniae; OmpK35 non-functional, OmpK36 full length (n=130)) was 3.4%. The “percentage of strains” value (Klebsiella pneumoniae; OmpK35 non-functional, OmpK36 non-functional (n=39)) was 95%, the “percentage of strains” value (Klebsiella pneumoniae; OmpK36 GD (n=160)) was 75% and the “percentage of strains” value (Klebsiella pneumoniae; OmpK36 non-functional (n=65)) was 92.3% and 92%. The “fold MIC increase” value (Klebsiella pneumoniae; inactivation of ompK36 alone or in combination with ompK35) was 2 fold and 2- to 4 fold, the “fold MIC increase” value (Klebsiella pneumoniae; strain KPM1171 vs wild type) was 4 fold and the MIC (Acinetobacter baumannii; Acinetobacter baumannii ACM1320 (ATCC 17978)) was 16 µg/mL. It also gave an MIC (Acinetobacter baumannii; Acinetobacter baumannii ACM1320 (ATCC 17978), read-out: MIC) of 72 µM, an MIC (Acinetobacter baumannii; Acinetobacter baumannii, 505 isolates of carbapenem-resistant A. baumannii, read-out: modal MIC) of 32 µg/mL and an MIC (Acinetobacter baumannii; Acinetobacter baumannii, AB1007 (no beta-lactamase), xeruborbactam 0 µg/ml, read-out: MIC) of 16 µg/mL. For the same compound, the MIC (Acinetobacter baumannii; Acinetobacter baumannii, ATCC17978, Acinetobacter baumannii ACM1320 (ATCC 17978), read-out: MIC) was 72 µM and 16 µg/mL, the MIC (Acinetobacter baumannii; Acinetobacter baumannii, ATCC17978, strain ATCC 17978 (Fig. 6), read-out: MIC) was 16 µg/mL and the MIC (Acinetobacter baumannii; Acinetobacter baumannii, pumpless strain of A. baumannii, read-out: MIC) was 18 µM and 4 µg/mL. For the same compound, the MIC (Acinetobacter baumannii; Acinetobacter baumannii, strain AB1007, wild type, read-out: MIC) was 16 µg/mL, the MIC (Acinetobacter baumannii; Acinetobacter baumannii, strain ACM1013, ΔadeIJK) was 4 µg/mL and the MIC (Acinetobacter baumannii; Acinetobacter baumannii, strain ACM1014, ΔadeABC) was 16 µg/mL. The MIC (Acinetobacter baumannii; Acinetobacter baumannii, strain ACM1015, ΔadeIJK ΔadeABC) was 4 µg/mL, the MIC (Acinetobacter baumannii; Acinetobacter baumannii, strain ACM1027, adeN (AdeIJK overexpression)) was 32 µg/mL and the MIC (Acinetobacter baumannii; Acinetobacter baumannii, strain ACM1030, adeS (AdeABC overexpression)) was 16 µg/mL. For the same compound, the MIC (Acinetobacter baumannii; Acinetobacter baumannii, strain AB1007, read-out: MIC) was 16 µg/mL, the MIC50 (Acinetobacter baumannii; [1]) was 16 µg/mL and the MIC90 (Acinetobacter baumannii; [1]) was 64 µg/mL. For the same compound, the “fold MIC decrease” value (Acinetobacter baumannii; adeIJK inactivation) was 4 fold, the “fold MIC increase” value (Acinetobacter baumannii; adeIJK overexpression) was 2 fold and the MIC (Streptococcus pneumoniae; sp001) was 8 µg/mL (≈ 36 µM). For the same compound, the MIC (Streptococcus pneumoniae; sp002) was 4 µg/mL (≈ 18 µM), the MIC (Streptococcus pneumoniae; sp003) was 4 µg/mL (≈ 18 µM) and the MIC (Streptococcus pneumoniae; sp004) was > 32 µg/mL. It also gave an MIC (Streptococcus pneumoniae; sp005) of 16 µg/mL (≈ 72.1 µM), an MIC (Streptococcus pneumoniae; sp006) of 32 µg/mL (≈ 144 µM) and an MIC (Streptococcus pneumoniae; sp007) of 16 µg/mL (≈ 72.1 µM). For the same compound, the MIC (Streptococcus pneumoniae; sp008) was 32 µg/mL (≈ 144 µM), the MIC (Streptococcus pneumoniae; sp009) was 32 µg/mL (≈ 144 µM) and the MIC (Streptococcus pneumoniae; sp117) was > 32 µg/mL. The MIC (Streptococcus pneumoniae; sp118) was > 32 µg/mL, the MIC (Streptococcus pneumoniae; sp119) was 32 µg/mL (≈ 144 µM) and the MIC (Streptococcus pneumoniae; sp120) was 32 µg/mL (≈ 144 µM). For the same compound, the MIC (Streptococcus pneumoniae; sp121) was 32 µg/mL (≈ 144 µM), the MIC (Streptococcus pneumoniae; sp122) was > 32 µg/mL and the MIC (Streptococcus pneumoniae; sp123) was > 32 µg/mL. For the same compound, the MIC (Streptococcus pneumoniae; sp125) was 32 µg/mL (≈ 144 µM), the MIC (Streptococcus pneumoniae; sp126) was > 32 µg/mL and the MIC50 (Streptococcus pneumoniae; S. pneumoniae strains, n = 18) was 32 µg/mL (≈ 144 µM). For the same compound, the MIC90 (Streptococcus pneumoniae; S. pneumoniae strains, n = 18) was > 32 µg/mL.
